In ChEMBL document CHEMBL1201862, “PubChem BioAssay data set” (2004):
Activity calls are given as the source filed them.

Assays:
[1] = target: T1, Rac GTPase-activating protein 1 (Homo sapiens, UniProt Q9H0H5); experiment: MgcRacGAP GTPase-activating activity inhibitors, confirmation, biochemical, ADP Hunter fluorescence, primary and confirmatory (AID 624330); format: functional
T1 sequence (Q9H0H5 whole entry): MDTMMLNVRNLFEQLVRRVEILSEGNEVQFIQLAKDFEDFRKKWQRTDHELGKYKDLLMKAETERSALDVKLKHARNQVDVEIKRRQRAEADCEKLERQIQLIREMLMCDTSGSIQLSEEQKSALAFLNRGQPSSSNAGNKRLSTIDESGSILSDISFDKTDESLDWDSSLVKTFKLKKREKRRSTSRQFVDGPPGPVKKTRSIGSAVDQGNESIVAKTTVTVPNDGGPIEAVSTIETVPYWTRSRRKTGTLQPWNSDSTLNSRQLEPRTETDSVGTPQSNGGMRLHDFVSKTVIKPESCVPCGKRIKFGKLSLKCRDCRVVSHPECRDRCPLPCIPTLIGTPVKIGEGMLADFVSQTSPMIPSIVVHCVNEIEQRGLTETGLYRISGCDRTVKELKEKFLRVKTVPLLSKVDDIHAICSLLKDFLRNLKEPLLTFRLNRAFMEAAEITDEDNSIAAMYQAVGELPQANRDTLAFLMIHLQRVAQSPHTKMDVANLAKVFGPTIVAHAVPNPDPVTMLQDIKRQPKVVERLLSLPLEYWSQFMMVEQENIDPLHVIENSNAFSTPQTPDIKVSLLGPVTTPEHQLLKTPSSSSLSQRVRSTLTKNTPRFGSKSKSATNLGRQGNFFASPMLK

[2] = target: Induced myeloid leukemia cell differentiation protein Mcl-1 (Homo sapiens, UniProt Q07820); format: functional
Chain of Induced myeloid leukemia cell differentiation protein Mcl-1 (Q07820 whole entry): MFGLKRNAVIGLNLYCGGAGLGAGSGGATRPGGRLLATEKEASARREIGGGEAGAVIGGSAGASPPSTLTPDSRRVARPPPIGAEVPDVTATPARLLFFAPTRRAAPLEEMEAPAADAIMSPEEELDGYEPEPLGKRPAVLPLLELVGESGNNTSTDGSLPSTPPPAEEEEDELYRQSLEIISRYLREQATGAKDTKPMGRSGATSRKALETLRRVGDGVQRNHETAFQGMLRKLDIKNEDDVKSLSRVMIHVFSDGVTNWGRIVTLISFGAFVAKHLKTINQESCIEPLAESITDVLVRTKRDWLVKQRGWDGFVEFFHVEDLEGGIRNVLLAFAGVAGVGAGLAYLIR

[3] = target: T2, Histone-lysine N-methyltransferase NSD2 (Homo sapiens, UniProt O96028); format: biochemical
T2 sequence (O96028 whole entry): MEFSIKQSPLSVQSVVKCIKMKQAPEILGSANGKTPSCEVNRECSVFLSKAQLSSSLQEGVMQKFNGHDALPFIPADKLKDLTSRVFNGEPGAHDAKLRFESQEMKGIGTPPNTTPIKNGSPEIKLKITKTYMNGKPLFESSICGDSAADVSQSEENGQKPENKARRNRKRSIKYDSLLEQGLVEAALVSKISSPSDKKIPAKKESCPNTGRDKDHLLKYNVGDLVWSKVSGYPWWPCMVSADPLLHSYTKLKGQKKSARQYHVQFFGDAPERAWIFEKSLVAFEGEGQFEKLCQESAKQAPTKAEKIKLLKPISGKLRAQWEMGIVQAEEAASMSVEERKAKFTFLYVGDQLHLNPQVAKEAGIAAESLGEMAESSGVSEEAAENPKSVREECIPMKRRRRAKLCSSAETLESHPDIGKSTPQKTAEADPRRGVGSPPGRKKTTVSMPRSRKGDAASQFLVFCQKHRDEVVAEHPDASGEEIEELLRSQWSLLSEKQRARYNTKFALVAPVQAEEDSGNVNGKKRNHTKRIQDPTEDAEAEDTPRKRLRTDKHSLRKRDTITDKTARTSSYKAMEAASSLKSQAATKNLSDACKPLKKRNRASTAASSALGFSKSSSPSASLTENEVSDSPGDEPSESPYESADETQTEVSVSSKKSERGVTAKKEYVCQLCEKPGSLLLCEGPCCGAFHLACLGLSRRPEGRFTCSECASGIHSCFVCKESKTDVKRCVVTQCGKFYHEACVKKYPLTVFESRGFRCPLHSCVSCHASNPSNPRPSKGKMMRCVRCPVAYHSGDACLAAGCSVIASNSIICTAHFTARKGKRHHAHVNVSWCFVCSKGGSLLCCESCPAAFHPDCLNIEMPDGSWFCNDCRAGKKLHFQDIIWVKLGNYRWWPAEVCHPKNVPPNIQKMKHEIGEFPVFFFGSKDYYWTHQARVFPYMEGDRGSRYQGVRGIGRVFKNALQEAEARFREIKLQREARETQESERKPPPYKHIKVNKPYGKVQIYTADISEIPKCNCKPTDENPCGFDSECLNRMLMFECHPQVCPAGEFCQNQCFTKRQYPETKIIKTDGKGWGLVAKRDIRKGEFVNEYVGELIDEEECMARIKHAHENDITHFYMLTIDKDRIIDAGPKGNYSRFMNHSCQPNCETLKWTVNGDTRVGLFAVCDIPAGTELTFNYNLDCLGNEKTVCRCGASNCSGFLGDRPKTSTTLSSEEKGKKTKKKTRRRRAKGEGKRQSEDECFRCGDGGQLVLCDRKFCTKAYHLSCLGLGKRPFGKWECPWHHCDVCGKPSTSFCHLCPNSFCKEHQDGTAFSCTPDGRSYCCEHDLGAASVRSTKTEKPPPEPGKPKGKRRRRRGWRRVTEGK

[4] = target: 26S proteasome non-ATPase regulatory subunit 14 (Homo sapiens, UniProt O00487); experiment: inhibition of proteasome subunit RPN11 – biochemical, fluorescence polarization, uHTS hits, confirmation (AID 602368); format: functional
Chain of 26S proteasome non-ATPase regulatory subunit 14 (O00487 whole entry): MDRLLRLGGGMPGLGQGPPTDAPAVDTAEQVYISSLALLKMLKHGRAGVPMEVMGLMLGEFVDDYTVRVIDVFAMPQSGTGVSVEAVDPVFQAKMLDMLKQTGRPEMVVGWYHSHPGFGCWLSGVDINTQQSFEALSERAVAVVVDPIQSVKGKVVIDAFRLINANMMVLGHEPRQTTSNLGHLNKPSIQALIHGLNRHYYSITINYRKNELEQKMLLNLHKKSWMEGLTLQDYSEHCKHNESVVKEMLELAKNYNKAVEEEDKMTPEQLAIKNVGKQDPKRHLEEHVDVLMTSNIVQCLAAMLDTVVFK

[5] = target: Prothrombin (Bos taurus, UniProt P00735); experiment: thrombin inhibition, dose response, biochemical, fluorescence polarization, uHTS hits (AID 602369); format: functional
[6] = target: Bifunctional protein GlmU (Mycobacterium tuberculosis, UniProt P9WMN3); experiment: Inhibitors of Mycobacterial Glucosamine-1-phosphate acetyl transferase (GlmU). Secondary screen.; design: species or system Mycobacterium tuberculosis H37Rv
[7] = target: DNA (cytosine-5)-methyltransferase 1 (Homo sapiens, UniProt P26358); experiment: DNMT1 methyltransferase inhibitors, confirmation, biochemical, fluorescent molecular beacon (AID 602386); format: functional
Chain of DNA (cytosine-5)-methyltransferase 1 (P26358 whole entry): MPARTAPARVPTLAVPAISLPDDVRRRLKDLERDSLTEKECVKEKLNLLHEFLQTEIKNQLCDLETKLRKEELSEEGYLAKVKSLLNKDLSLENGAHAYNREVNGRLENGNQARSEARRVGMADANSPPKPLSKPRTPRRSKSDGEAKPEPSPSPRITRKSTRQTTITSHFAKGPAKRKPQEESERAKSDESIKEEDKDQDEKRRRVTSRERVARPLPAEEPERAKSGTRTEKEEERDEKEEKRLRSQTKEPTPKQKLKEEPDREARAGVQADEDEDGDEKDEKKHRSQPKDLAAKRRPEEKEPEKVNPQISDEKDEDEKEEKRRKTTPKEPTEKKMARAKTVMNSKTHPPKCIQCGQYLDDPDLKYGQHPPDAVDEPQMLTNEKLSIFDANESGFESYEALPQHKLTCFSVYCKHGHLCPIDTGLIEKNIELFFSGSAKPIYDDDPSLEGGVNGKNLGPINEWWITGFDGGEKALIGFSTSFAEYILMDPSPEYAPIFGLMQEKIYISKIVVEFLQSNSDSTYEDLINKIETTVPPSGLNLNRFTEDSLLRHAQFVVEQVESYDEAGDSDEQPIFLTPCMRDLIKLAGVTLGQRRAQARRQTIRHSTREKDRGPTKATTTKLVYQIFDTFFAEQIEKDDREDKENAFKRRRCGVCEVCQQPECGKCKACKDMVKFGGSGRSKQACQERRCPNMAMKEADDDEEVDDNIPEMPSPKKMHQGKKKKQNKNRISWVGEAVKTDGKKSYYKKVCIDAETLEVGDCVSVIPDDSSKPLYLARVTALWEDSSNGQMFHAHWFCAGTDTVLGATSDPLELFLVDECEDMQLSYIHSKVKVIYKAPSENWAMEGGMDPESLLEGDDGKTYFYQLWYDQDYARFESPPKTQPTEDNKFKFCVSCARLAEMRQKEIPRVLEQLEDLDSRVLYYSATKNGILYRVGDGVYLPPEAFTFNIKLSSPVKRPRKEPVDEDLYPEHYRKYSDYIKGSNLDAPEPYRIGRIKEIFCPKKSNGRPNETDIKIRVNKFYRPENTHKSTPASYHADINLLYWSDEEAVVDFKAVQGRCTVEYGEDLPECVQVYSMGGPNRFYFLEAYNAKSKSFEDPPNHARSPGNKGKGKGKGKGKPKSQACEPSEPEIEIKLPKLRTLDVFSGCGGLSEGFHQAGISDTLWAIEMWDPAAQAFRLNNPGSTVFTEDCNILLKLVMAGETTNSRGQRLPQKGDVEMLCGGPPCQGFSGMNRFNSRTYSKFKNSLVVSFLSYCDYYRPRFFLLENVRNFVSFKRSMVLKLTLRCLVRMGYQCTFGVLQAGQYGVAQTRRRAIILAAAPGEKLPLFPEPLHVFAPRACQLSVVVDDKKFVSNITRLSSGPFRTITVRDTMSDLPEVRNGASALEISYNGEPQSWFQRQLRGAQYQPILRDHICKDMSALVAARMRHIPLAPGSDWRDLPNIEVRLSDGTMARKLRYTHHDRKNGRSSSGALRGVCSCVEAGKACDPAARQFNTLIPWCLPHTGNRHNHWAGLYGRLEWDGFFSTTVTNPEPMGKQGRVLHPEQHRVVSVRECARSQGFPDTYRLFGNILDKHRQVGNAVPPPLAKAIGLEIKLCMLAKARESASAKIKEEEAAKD

[8] = target: 72 kDa type IV collagenase (Homo sapiens, UniProt P08253); experiment: Dose Response validation of uHTS RPN11 inhibitor hits using a MMP-2 Fluorescence assay.; format: functional
Chain of 72 kDa type IV collagenase (P08253 whole entry): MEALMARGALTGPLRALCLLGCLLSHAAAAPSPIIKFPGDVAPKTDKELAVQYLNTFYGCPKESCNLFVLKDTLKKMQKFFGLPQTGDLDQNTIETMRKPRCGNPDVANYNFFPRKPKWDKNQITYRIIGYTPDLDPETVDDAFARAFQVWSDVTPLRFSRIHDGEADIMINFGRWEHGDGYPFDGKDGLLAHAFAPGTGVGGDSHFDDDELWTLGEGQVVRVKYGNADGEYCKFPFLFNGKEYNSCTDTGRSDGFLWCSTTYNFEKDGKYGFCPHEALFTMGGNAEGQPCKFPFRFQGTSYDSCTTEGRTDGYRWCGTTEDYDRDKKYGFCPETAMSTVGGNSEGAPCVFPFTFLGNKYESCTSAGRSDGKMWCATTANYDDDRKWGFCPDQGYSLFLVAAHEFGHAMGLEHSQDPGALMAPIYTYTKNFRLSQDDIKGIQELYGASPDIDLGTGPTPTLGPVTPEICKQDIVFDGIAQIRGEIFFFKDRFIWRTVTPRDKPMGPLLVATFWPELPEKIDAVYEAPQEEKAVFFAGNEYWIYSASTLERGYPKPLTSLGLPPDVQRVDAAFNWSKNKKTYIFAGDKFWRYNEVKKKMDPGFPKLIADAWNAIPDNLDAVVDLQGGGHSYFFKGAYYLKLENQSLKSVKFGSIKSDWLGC

[9] = HeLa 4N DNA content increase, dose response, cell-based, IC50 (AID 1117351); format: functional
[10] = SNU-C1 cell viability reduction, dose response, CellTiter-Glo luminescence (AID 1117323); format: functional, cell-based
[11] = HCT116 cell viability decrease, GSK3B pretreatment – CellTiter-Glo, IC50, dose response (AID 1117339); format: functional; conditions: HCT-116
[12] = cytotoxicity toward HT-29 cells – cell-based, CellTiter-Glo luminescence, IC50, dose response (AID 1117330); format: functional
[13] = cytotoxicity toward HCT116 cells – cell-based, CellTiter-Glo luminescence, IC50, dose response (AID 1117332); format: functional; conditions: HCT-116
[14] = CellTiter-Glo luminescent dose response of DLD-1 viability loss (AID 1117352); format: functional
[15] = HeLa 2N DNA content increase, dose response, cell-based, IC50 (AID 1117349); format: functional
[16] = target: T3, RNA-binding protein pos-1 (Caenorhabditis elegans, UniProt G5EF15); experiment: inhibitors of POS-1/mex-3 RNA binding, dose response, biochemical, fluorescence polarization (AID 1964);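 note: purified POS-1 fused to maltose binding protein made in E. coli; potency of compounds blocking POS-1 binding to fluorescent RNA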
T3 sequence (G5EF15 whole entry): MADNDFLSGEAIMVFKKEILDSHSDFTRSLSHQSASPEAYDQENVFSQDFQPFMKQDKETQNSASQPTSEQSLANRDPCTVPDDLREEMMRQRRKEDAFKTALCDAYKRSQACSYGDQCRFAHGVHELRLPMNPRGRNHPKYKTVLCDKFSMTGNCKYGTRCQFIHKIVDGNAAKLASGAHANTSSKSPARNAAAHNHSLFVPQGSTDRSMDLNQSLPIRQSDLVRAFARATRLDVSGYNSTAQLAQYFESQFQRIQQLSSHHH

[17] = target: T4, Mannose-6-phosphate isomerase (Homo sapiens, UniProt P34949); experiment: inhibitors of human PMI, primary screen, biochemical, fluorescence intensity, coupled assay (AID 1209)
T4 sequence (P34949 whole entry): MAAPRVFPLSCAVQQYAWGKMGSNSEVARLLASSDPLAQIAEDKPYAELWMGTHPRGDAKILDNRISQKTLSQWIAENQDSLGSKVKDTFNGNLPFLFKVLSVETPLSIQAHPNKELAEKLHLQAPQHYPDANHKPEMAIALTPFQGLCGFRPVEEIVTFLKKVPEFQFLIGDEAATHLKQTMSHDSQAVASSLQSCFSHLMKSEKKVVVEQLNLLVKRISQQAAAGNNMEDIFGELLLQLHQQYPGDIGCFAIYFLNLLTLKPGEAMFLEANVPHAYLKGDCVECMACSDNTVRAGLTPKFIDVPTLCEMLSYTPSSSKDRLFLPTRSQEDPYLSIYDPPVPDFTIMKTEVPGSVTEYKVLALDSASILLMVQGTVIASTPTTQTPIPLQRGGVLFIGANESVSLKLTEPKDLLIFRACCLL

[18] = target: T4, Mannose-6-phosphate isomerase; experiment: human PMI inhibitors, high substrate, primary screen, biochemical, fluorescence intensity, high mannose 6-phosphate (AID 1220)
[19] = target: Glutathione-S-transferase (Schistosoma japonicum, UniProt Q26513); experiment: biotin-GST/anti-GST TR-FRET signal inhibitors, dose response, artefact control for Vif-APOBEC3G degradation inhibitor project, biochemical (AID 1117362); format: functional
Chain of Glutathione-S-transferase (Q26513 whole entry): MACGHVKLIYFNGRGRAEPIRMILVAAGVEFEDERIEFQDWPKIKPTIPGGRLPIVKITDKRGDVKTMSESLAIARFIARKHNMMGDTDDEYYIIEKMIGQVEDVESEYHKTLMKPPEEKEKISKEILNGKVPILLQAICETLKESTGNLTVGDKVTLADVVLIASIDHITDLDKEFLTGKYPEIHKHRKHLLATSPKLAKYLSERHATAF

[20] = target: Glucose-6-phosphate 1-dehydrogenase (Homo sapiens, UniProt P11413); experiment: human G6PD enzyme inhibitors, dose response, selectivity assay for P. falciparum G6PD inhibitor project, biochemical, fluorescence (AID 504792); format: functional
Chain of Glucose-6-phosphate 1-dehydrogenase (P11413 whole entry): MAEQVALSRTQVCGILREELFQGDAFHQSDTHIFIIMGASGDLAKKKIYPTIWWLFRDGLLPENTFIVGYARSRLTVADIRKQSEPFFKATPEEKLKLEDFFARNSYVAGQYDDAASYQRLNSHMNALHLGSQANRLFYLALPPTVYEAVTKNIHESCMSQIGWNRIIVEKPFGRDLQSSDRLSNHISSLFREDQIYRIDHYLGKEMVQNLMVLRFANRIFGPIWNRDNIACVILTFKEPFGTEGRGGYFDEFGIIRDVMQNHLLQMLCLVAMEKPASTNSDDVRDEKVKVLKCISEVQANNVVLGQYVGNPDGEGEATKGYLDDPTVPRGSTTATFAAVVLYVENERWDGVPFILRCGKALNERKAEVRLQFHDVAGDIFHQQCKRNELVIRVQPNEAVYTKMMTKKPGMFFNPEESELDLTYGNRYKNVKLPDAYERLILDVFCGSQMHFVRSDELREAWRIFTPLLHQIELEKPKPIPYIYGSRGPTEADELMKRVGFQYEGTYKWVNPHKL

[21] = target: Albumin (Bos taurus, UniProt P02769); experiment: Counterscreen for inhibitors of T-cell receptor (TCR)-CD3 interaction: Fluorescence-based biochemical high throughput dose response assay to identify inhibitors of T-cell receptor (TCR)-CD3 interaction using a TAMRA-labeled BSA probe.; format: functional
Chain of Albumin (P02769 whole entry): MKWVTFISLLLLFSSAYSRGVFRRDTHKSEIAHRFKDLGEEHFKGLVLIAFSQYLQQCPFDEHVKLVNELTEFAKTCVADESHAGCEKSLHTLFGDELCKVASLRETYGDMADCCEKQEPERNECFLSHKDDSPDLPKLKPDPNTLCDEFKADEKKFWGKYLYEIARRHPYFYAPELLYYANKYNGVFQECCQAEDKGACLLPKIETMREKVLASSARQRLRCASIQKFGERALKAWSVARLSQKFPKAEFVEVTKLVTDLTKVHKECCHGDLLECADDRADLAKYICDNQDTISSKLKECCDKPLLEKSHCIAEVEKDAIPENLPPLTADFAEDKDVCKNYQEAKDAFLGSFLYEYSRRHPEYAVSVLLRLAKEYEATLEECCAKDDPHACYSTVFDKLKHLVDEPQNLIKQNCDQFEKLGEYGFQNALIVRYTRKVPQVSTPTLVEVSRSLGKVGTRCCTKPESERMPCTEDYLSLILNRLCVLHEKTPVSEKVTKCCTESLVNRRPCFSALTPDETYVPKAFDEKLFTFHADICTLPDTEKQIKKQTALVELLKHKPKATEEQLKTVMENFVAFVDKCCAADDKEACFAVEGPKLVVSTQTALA

[22] = target: Genome polyprotein (dengue virus type 2, UniProt P29990); experiment: Dengue-2 NS5 methyltransferase inhibitors, primary screen, biochemical, confirmation dose response (AID 588689); format: functional
[23] = target: RNA-editing ligase 1, mitochondrial (Trypanosoma brucei brucei, UniProt P86926); experiment: TbREL1 ligase inhibitors, dose response, biochemical, fluorescence, Trypanosoma brucei (AID 1117295); format: functional
Chain of RNA-editing ligase 1, mitochondrial (P86926 whole entry): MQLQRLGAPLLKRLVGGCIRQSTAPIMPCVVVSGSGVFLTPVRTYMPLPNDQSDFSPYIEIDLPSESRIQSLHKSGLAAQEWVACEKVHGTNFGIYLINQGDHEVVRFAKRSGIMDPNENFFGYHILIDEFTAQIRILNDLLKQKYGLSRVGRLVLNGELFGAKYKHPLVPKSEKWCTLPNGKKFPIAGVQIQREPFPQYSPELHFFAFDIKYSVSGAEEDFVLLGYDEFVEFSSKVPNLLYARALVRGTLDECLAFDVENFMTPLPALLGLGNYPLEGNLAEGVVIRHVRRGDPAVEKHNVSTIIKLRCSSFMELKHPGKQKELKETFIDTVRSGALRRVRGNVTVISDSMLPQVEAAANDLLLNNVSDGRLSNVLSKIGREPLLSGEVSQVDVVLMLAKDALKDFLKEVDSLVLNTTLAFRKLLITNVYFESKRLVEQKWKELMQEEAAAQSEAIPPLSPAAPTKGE

[24] = target: T5, Protein Tat (Human immunodeficiency virus type 1 group M subtype B (isolate HXB2)(HIV-1), UniProt P04608); format: functional;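 note: tat binding to TAR RNA read out by fluorescence polarization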
T5 sequence (P04608 whole entry): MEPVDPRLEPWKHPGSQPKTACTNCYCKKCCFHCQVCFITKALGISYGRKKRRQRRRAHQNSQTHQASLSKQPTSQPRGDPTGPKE

Cc1ccc(N2C(=O)NC(=O)/C(=C/c3ccoc3)C2=O)cc1
active: IC50 [1] 55.7 µM | IC50 [2] 4.84 µM | AC50 [3] 7.88 µM | IC50 [4] 6.76 µM | IC50 [5] 84.7 µM | IC50 [6] 66.5 µM | IC50 [7] 4 µM | IC50 [8] 3.45 µM

O=Cc1ccc(O)c(O)c1O
inactive: IC50 [9] > 10 µM | IC50 [10] > 20 µM | IC50 [12] > 20 µM | IC50 [13] > 20 µM | IC50 [14] > 20 µM | IC50 [15] > 10 µM
active: IC50 [11] 0.141 µM

C/N=c1\scc(C)n1/N=C/c1ccc(O)c(O)c1O
inconclusive: EC50 [16] > 300 µM | IC50 [24] 49.8 µM
active: IC50 [19] > 100 µM | IC50 [2] 2.72 µM | IC50 [22] 13.9 µM
> 50 µM (not active): IC50 [17] | IC50 [18]
inactive: IC50 [20] 44 µM | IC50 [21] > 94.1 µM | IC50 [23] > 96.6 µM
